Here are results for 90 molecules from a melting point compilation (Tetko et al.; mined from patent text by program, amines drawn as free bases though some values may be those of a salt).

SMILES strings stand for the structures.

By melting point is commonly meant the temperature of the solid-liquid transition. On to `CCCOc1nc2ccccc2[nH]1`, for which the melting point fell in the range of 163 to 164 °C.

Regarding `CC(C)C(=O)N1CCC(c2nc3cc(-c4ccc(C(N)=O)c(F)c4)ccc3o2)CC1`, the melting point lay within 193 to 196 °C.

Take `N#CNC(=S)Nc1cccc(Cl)c1`: the melting point lay in the range of 258 to 260 °C.

`O=C(c1ccc2cc(Cl)ccc2c1)C1CCNCC1` yielded a melting point of 98 to 100 °C.

Molecule `CC(CO)Nc1ccc(-c2cccc(C(F)(F)F)c2)nn1` (stereo not given) displayed a melting point of 143 to 144 °C.

In turn, `O=c1cc2ccccc2c[nH]1` returned a melting point of 201 °C.

Consider `OC1(c2ccc(Br)cc2)c2ccccc2C2=NCCN21` (stereo not given), for which the melting point is 194 to 196 °C.

Consider `N#Cc1cc(Cl)nc(NN)c1`, for which the melting point is 208 to 210 °C.

`Cc1cc(CCCOc2c(C)cc(-c3noc(C(Cl)(Cl)Cl)n3)cc2C)on1` yielded a melting point of 77 to 77.5 °C.

With `C=C(C)c1cccc(C(C)(C)NSc2nc3ccccc3s2)c1`, the melting point was in the range of 93 to 95 °C.

On to `COc1cccc([C@@H]2CC[C@H](c3cccc(O)c3)N2C(=O)CNC(=O)Nc2cccc(C(=O)O)c2)c1` (relative stereo), for which the melting point is 172 °C.

With `COCCOCCC1CCCCCc2c1oc(=O)c(C(c1ccccc1)C1CC1)c2O` (stereo not given), the melting point fell in the range of 129 to 133 °C.

`COc1cc(C=CC(=O)CSc2ccccc2)ccc1O` registered a melting point of 78 to 80 °C.

Turning to `CCOC(=O)[C@@H](Cc1ccc2ccc(C#N)cc2c1)c1ccc(O[C@H]2CCN(Cc3ccccc3)C2)cc1`, the melting point lay in the range of 95 to 95.5 °C.

`COc1cc(-c2nc(C)nn2C)cc2oc(=O)c(C)c(C)c12` returned a melting point of 180 °C.

The molecule `O=C(O)c1cncc(-c2ccc3c(C(=O)NCC45CC6CC(CC(C6)C4)C5)c(Cl)ccc3n2)c1` showed a melting point of 247 °C.

Molecule `CCc1ncnc(NC2CCc3cc(O)ccc3C2)c1Cl` (stereo not given) came in with a melting point of 178 °C.

In turn, `CCOC(=O)c1cn(-c2nnc(C)s2)c2cc(F)c(F)cc2c1=O` registered a melting point of 170 to 173 °C.

In the case of `C#CC1(O)CCC2C3CCC4=CC(=O)CCC4C3C(=CF)CC21CC` (stereo not given), the melting point is 169 to 180 °C.

On to `O=C(O)[C@H]1CN(c2ccc(C3=CCSCC3)c(F)c2)C(=O)O1`, for which the melting point lay in the range of 106 to 110 °C.

The molecule `CCc1nn(C2CCCC2)c2cc(C(=O)Nc3c(Cl)ncnc3Cl)ccc12` returned a melting point of 171 to 172 °C.

Turning to `CCCCc1ccc(C(=O)NCCC(C)(C)C)cc1`, the melting point is 70 to 71 °C.

Take `CCn1c(=O)c2[nH]c(/C=C/c3cccc(F)c3C)nc2n(CC)c1=O`: the melting point was > 270 °C.

For the molecule `Cc1ccc(C=CCC(C(=O)C=Cc2ccc(Cl)cc2)c2ccccc2)cc1` (stereo not given), the melting point was 114 to 118 °C.

Molecule `Cn1ncnc1COc1nn2c(-c3ccc(F)cc3F)nncc2c1C(C)(C)C` returned a melting point of 118 °C.

`O=C(O)c1nn(CCCCCCl)c2c1CCc1cc(Cl)sc1-2` yielded a melting point of 205 to 208 °C.

For the molecule `CC(=O)Oc1c(C)cc2c(c1C)C(C)CN2C(=O)C(C)C` (stereo not given), the melting point lay in the range of 118 to 120 °C.

As to `CC(=O)c1ccc2c(c1)C(NC(=NC#N)Nc1ccccc1)C(O)C(C)(C)O2` (stereo not given), the melting point was 182 to 184 °C.

Turning to `O=C(O)C(Cc1ccccc1)Nc1cc(-c2ccc(CCc3ccccc3)cc2)ncn1` (stereo not given), the melting point is 216 to 218 °C.

`CC(C)c1ccc2c(c1)C(C(=O)O)c1ccccc1CO2` (stereo not given) returned a melting point of 161 to 162 °C.

Molecule `Clc1cc2cc[nH]c2cn1` yielded a melting point of 192 to 194 °C.

Take `N=C1C=CC=CC1Cc1cccc2c1NCC2` (stereo not given): the melting point is 62 to 63 °C.

As for `COC(=O)c1ccc(NC(=O)C(CC2CCCC2)c2ccc(F)c(C(F)(F)F)c2)nc1` (stereo not given), the melting point was 270 to 275 °C.

`O=C(NCCCCCCO)OCc1ccccc1` had a melting point of 67 to 68 °C.

As for `CCCCc1nc(CCO)c[nH]1`, the melting point was in the range of 92 to 93 °C.

Turning to `O=C(c1ccc(OCc2ccnc3ccccc23)cc1)[NH+]([O-])C1CCN(Cc2ccccc2)CC1` (stereo not given), the melting point was 171 to 173 °C.

The molecule `N#CN=C(Nc1cncc(N)c1)NC1(c2ccccc2)CCC1` gave a melting point of 213 to 214 °C.

`O=C(CCCI)ON1C(=O)CCC1=O` registered a melting point of 86 to 87 °C.

As for `O=C(NCCO)c1csc(C(F)(F)F)n1`, the melting point was 100 to 101 °C.

Molecule `O=C(CCCCCCC(=O)N1CCN(CC(c2ccccc2)c2ccccc2)CC1)NO` displayed a melting point of 117 to 118 °C.

As to `COC(=O)c1ccc2c(-c3ccccc3)cc(=O)oc2c1`, the melting point was 133 to 135 °C.

As for `CC(=O)c1ccc(C(C)=O)s1`, the melting point is 171 to 173 °C.

`N#Cc1ccnc(-c2nc(=O)c3ccccc3s2)c1` came in with a melting point of 283 to 284 °C.

Take `CC(C)(C)C(NC(=O)c1cccc(Cl)c1)Nc1c(Nc2cccnc2Cl)c(=O)c1=O` (stereo not given): the melting point was 213 to 214 °C.

For `O=C(CCc1ccc2ccccc2c1)c1cnc2sc3c(n12)CCCCC3`, the melting point fell in the range of 76 to 78 °C.

The molecule `COC1=CC(=O)NCC1` had a melting point of 115 to 117 °C.

As to `CCC(=Cc1ccccc1)C1=CC=C2C(C1)C(C)(C)CCC2(C)C` (stereo not given), the melting point worked out at 65 °C.

For the molecule `O=C(Nc1cccc(S(=O)(=O)NCc2ccccn2)c1)c1cnn2c(C(F)(F)F)cc(-c3ccc(C(F)(F)F)cc3)nc12`, the melting point was found to be 229 °C.

With `CCOC(=O)Cc1nnc(-c2ccc(OC)cc2)n1-c1ccccc1`, the melting point is 130 to 131 °C.

On to `COc1ccc(CC#N)c(Cl)c1Cl`, for which the melting point is 118 to 119 °C.

In turn, `COc1cc(C(=O)NS(=O)(=O)c2ccccc2C)ccc1Cc1cn(C)c2ccc(NC(=O)NC3CCCC3)cc12` displayed a melting point of 212 to 215 °C.

In turn, `Cc1ccc(NC(N)=S)c(-c2ccccc2)c1` had a melting point of 175 to 177 °C.

In the case of `COc1cccc(CNC(=O)c2ccc(COC3CCCCO3)cc2)c1` (stereo not given), the melting point is 66 to 68.5 °C.

In turn, `CCOC(=O)c1cn(C2COC2)c2c(F)c(F)c(F)c(NCc3ccccc3)c2c1=O` had a melting point of 127 to 128 °C.

Molecule `Cc1ccc(-c2cccc(/C=C/C(=O)Nc3ccc(CN4CCCCC4CO)cc3)c2)cc1` (stereo not given) returned a melting point of 137 to 139 °C.

With `CCCc1nc2c(N)nc3cc(OCCCCCCNC(=O)c4ccc(N=[N+]=[N-])cc4O)ccc3c2s1`, the melting point fell in the range of 127 to 128 °C.

In the case of `CCS(=O)CCNC(=O)C1=C(C(=O)Nc2ccc(Cl)cc2F)CCCC1` (stereo not given), the melting point was in the range of 136 to 137 °C.

Consider `CSC(=C[N+](=O)[O-])NCCSCc1csc(NC(=N)N)n1`, for which the melting point was in the range of 151 to 156 °C.

The molecule `CC(C)(O)c1ccc(-c2ccc3nnn(Cc4ccc5ncccc5c4)c3n2)cc1F` displayed a melting point of 85 to 89 °C.

Take `CC(C)(C)c1ccc(C(=O)Nc2cn3nc(NCCO)ccc3n2)cc1`: the melting point was in the range of 231 to 233 °C.

On to `COc1cc(Br)c2nc(-c3ccc(OC)c(F)c3)cc(Br)c2c1`, for which the melting point was 178 to 179 °C.

Molecule `N#Cc1[nH]c2ccc(C(O)(C(F)(F)F)C(F)(F)F)cc2c1-c1ccccc1` came in with a melting point of 247 to 249 °C.

As to `COc1ccc2c(=O)c3cccc(OCc4ccccc4)c3oc2c1`, the melting point is 158 °C.

`C[C@H](OCc1cc2cc(Cl)ccc2n1S(=O)(=O)c1ccc2ncsc2c1)C(=O)O` displayed a melting point of 82 °C.

`Cc1cc(C)c2c(c1Br)CCC2=O` registered a melting point of 103 °C.

As for `COC(=O)C1=C(C)NC(=S)N(C(=O)Cc2ccccc2)C1c1cccc([N+](=O)[O-])c1` (stereo not given), the melting point lay within 155 to 156 °C.

For the molecule `Cc1c(C(F)(F)F)noc1NS(=O)(=O)c1cccc2ccccc12`, the melting point was in the range of 154 to 155 °C.

For `Cc1nc(N2CCN(Cc3cccc(C(F)(F)F)c3)C2=O)sc1-c1cc[nH]n1`, the melting point was in the range of 209 to 214 °C.

`COc1cccc(-c2nc3c(C(N)=O)cccc3[nH]2)c1` had a melting point of 93 to 94 °C.

As for `Cn1c(-c2nnc(N)s2)cnc1[N+](=O)[O-]`, the melting point is 263 to 265 °C.

`COC(=O)c1cccc(C(=O)N(C)c2ccc3c(=O)n4c(nc3c2)C(=Cc2ccccc2)CC4)c1` showed a melting point of 200 to 202 °C.

`O=c1c(O)cn(-c2ccccc2F)nc1-c1ccnn1-c1ccccc1` displayed a melting point of 218 to 220 °C.

As for `O[C@@H](CNCCOc1ccc2oc(-c3ccon3)cc2c1)c1cccc(C(F)(F)F)c1`, the melting point is 113 to 114 °C.

`COC(=O)c1ncoc1C(C)C`: the melting point was in the range of 49 to 50 °C.

In the case of `COCOc1c(-c2cncc3cccc([N+](=O)[O-])c23)ccc(OC)c1OC`, the melting point lay in the range of 138 to 140 °C.

In turn, `CCOC(=O)C1=C(C)N(CCOC(=O)c2ccccc2)C(=O)NC1c1ccccc1` (stereo not given) came in with a melting point of 129 °C.

In the case of `CC(=O)N1CC(C)=NN(c2cc(Cl)c(Cc3ccc(Cl)cc3)c(Cl)c2)C1=O`, the melting point was in the range of 101 to 102 °C.

Molecule `O=C1c2ccc([N+](=O)[O-])cc2C(=O)N1C1CCN(C2CCCCC2)CC1` registered a melting point of 265 to 270 °C.

Molecule `COc1cc(COc2nn(-c3ccccc3)cc2/C=C/c2nnco2)ccc1OCc1nc(-c2ccco2)oc1C` came in with a melting point of 162 to 163 °C.

For `CCCSc1ccc([N+](=O)[O-])c(NC(=S)NC(=O)OC)c1`, the melting point lay in the range of 122 to 125 °C.

Turning to `C=CCNc1nc(NC23CC4CC(CC(C4)C2)C3)c2scc(C)c2n1`, the melting point lay in the range of 107 to 109 °C.

Molecule `CC(=O)N(Cc1ccc(Cl)cc1Cl)c1cncnc1` showed a melting point of 134 to 136 °C.

On to `COC(=O)c1cc(S(C)(=O)=O)c(Br)cc1C`, for which the melting point worked out at 150 °C.

`CN1CCN(c2cccc3ccc(Nc4ncccc4[N+](=O)[O-])cc23)CC1` registered a melting point of 128 to 129 °C.

For the molecule `c1ccc(COC[C@H](CP(c2ccccc2)c2ccccc2)P(c2ccccc2)c2ccccc2)cc1`, the melting point amounted to 88 °C.

For `CN(C)C(=O)C1CCCc2c1c1ccccc1n2Cc1ccccc1` (stereo not given), the melting point is 208 to 210 °C.

The molecule `CC(=O)c1c(C)[nH]c(C(C)c2ccccc2)c1C` (stereo not given) gave a melting point of 146 to 148 °C.

On to `CCN1c2ncc(CN(C)c3ccccc3)cc2C(=O)N(C)c2ccc(Cl)nc21`, for which the melting point was in the range of 55 to 57 °C.

The molecule `O=C1CCc2c1cccc2C(=O)c1ccccc1` showed a melting point of 86 to 88 °C.

As for `Oc1ccc2cc(Cc3c(Cc4ccccc4)sc4ccccc34)ccc2c1Br`, the melting point was 110 to 112 °C.
